Laboratory results reported in patent publication EP3807270B1, “NOVEL HETEROARYL HETEROCYCLYL COMPOUNDS FOR THE TREATMENT OF AUTOIMMUNE DISEASE” (F. Hoffmann-La Roche AG, priority 2018, dated 2019).

Tests used:
hTLR9 = molecular target: T1, hTLR9 (Homo sapiens, UniProt Q9NR96); assay: HEK293-Blue-hTLR-9 cells assay (SEAP reporter, ODN2006 stimulation); type: cell-based; design: host or cells: HEK293 (HEK-Blue); settings: HEK293-Blue-hTLR9 cells, ODN2006, 20 hrs; read-out: HEK/hTLR9 IC50
T1 sequence (Q9NR96 26-1032): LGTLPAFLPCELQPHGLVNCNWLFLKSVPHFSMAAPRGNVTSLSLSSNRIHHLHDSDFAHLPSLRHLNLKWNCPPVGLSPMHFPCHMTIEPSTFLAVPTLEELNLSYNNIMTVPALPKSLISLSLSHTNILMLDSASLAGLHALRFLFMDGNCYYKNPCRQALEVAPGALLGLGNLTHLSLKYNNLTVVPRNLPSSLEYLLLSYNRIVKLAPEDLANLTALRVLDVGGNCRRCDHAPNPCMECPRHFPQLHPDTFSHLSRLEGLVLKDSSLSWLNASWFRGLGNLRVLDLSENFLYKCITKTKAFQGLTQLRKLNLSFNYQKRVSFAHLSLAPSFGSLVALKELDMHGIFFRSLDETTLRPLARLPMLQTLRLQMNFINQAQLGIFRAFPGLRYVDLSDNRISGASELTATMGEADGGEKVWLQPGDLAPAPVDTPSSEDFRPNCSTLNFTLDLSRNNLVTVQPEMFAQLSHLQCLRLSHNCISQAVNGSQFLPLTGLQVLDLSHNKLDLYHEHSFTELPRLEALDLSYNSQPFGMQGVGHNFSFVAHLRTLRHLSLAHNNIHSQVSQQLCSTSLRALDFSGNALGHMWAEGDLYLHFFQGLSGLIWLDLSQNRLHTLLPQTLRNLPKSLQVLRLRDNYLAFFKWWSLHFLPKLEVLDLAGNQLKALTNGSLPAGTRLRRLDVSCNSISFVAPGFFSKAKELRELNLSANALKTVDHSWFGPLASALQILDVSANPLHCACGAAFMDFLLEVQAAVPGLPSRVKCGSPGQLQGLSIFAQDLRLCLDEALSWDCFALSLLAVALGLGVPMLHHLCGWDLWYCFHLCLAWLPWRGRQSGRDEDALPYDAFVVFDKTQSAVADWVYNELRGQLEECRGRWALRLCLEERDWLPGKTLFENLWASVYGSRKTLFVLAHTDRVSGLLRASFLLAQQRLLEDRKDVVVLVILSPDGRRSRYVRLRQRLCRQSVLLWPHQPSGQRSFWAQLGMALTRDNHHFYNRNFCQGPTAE
Procedure, shortened: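 HEK293-Blue-hTLR9 cells (250,000-450,000 cells/mL) in DMEM with 10% FBS were treated with serially diluted compound (1% DMSO final) plus ODN2006 for 20 hrs at 37 °C. Supernatant SEAP activity was measured with QUANTI-Blue substrate for 2 hrs at 37 °C, reading absorbance at 620-655 nm.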

CYP2D6 = molecular target: T2, CYP2D6 (Homo sapiens, UniProt P10635); assay: CYP inhibition assay in human liver microsome; type: in vitro ADME; settings: human liver microsomes, probe dextromethorphan, 10µM test compound, dextromethorphan substrate, <0: not or weak inhibitor, read-out: CYP 2D6 inhibition %@10µM
T2 construct: tissue BD-Gentest 452117; host or cells: human liver microsomes
Procedure, shortened: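 HLM mixed with CYP2D6 substrate, preincubated 10 min at 37 °C, started with NADPH regenerating system and run 10 min at 37 °C before acetonitrile quench. Metabolite measured by RapidFire MS/MS against D3-dextrorphan internal standard. % inhibition scaled between DMSO and concentrated-inhibitor controls.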

T2 sequence (P10635 whole entry): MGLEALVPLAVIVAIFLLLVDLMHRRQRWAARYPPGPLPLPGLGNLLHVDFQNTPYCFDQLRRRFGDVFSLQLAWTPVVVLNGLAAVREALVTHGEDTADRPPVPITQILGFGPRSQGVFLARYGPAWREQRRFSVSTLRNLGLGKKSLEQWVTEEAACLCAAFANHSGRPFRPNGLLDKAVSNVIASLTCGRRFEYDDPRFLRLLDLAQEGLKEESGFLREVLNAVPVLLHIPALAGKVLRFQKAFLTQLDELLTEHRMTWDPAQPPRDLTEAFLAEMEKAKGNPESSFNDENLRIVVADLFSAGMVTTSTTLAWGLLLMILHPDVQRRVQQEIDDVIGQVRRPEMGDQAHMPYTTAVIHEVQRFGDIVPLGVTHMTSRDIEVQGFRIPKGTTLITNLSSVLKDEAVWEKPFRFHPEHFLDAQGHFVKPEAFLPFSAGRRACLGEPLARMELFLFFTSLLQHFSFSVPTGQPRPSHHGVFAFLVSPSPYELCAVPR

Compound | IC50 (hTLR9) | inhibition at 10 min, 10 µM (CYP2D6)
C[C@@H]1CN(c2ccc(C#N)c3ncccc23)C[C@H](CN2CCN(c3ccc4c(n3)CCN(C)C4)CC2)O1 [Example 34, 5-[(2R,6S)-2-methyl-6-[[4-(6-methyl-7,8-dihydro-5H-1,6-naphthyridin-2-yl)piperazin-1-yl]methyl]morpholin-4-yl]quinoline-8-carbonitrile] | 86 nM | 4%
C[C@@H]1CN(c2ccc(C#N)c3nccnc23)C[C@H](CN2CCN(c3cc4c(cn3)C[C@H](C)NC4)CC2)O1 (single isomer, unassigned) [Example 81] | 96 nM | 3.5%
C[C@@H]1CN(c2ccc(C#N)c3ncccc23)C[C@H](CN2CC3(C2)CN(c2ccc4c(n2)CCNC4)CCO3)O1 [Example 49, 5-[(2R,6S)-2-methyl-6-[[8-(5,6,7,8-tetrahydro-1,6-naphthyridin-2-yl)-5-oxa-2,8-diazaspiro[3.5]nonan-2-yl]methyl]morpholin-4-yl]quinoline-8-carbonitrile] | 48 nM | 22%

The remaining compounds from weak to strong by IC50 (hTLR9), led by results:

IC50 (hTLR9) | inhibition at 10 min, 10 µM (CYP2D6) | Compound
124 nM | -8% | C[C@@H]1Cc2cc(N3CCN(C[C@H]4CN(c5ccc(C#N)c6nccnc56)C[C@@H](C)O4)CC3)ncc2CN1 (single isomer, unassigned) [Example 83]
123 nM | 8% | C[C@@H]1CN(c2ccc(C#N)c3ncccc23)C[C@H](CN2CCN(c3cnc4c(n3)CNCC4)CC2)O1 [Example 40, 5-[(2R,6S)-2-methyl-6-[[4-(5,6,7,8-tetrahydropyrido[3,4-b]pyrazin-3-yl)piperazin-1-yl]methyl]morpholin-4-yl]quinoline-8-carbonitrile]
82 nM | 6% | C[C@@H]1CN(c2ccc(C#N)c3ncccc23)C[C@H](CN2CCN(c3cc4c(cn3)[C@@H](C)NCC4)CC2)O1 (single isomer, unassigned) [Example 73]
